“And” between values parts separate entries of the source, which are not always exact repeats. Equal values may be shown once. Read-outs that look alike come from different tables or passages of the source.
Assays:
[1] = tested on: breast cancer (T47D) cell line; test: MTT antiproliferative assay, T-47D
Method: The median inhibitory concentration (IC50) and GI50 (average IC50) against the three cancer cell lines were calculated. See Appendix B.
Cells were cultured using DMEM (Invitrogen/Life Technologies) supplemented with 10% FBS (Hyclone,), 10 ug/ml of insulin (Sigma), and 1% penicillin-streptomycin. Plate cells (cells density 1.2 – 1.8 × 10,000 cells/well) in a volume of 100µl complete growth medium + 100 ul of the tested compound per well in a 96-well plate for 24 hours before the MTT assay. In atypical experiment, one hundred micro liters of serial 10-fold diluted sterile tested compounds were added to final concentrations of […] using culture media as negative control. After 24 h of culture incubation and supernatants discarded. HOP-92 lung, MOLT-4 leukemia, and T-47D breast cell lines were trypsinized and washed with Ca2/Mg2 free PBS (pH 7.2). we removed cultures from incubator into laminar flow hood or other sterile work area. […] Each test should include a blank containing complete medium without cells. […] Add reconstituted MTT in an amount equal to 10% of the culture medium volume. Return cultures to incubator for 2-4 hours depending on cell type and maximum cell density. […] Spectrophotometrically absorbance was measured at a wavelength of 570 nm. Measure the background absorbance of multiwell plates at 690 nm and subtract from the […] measurement. Results from all experiments were recorded and the percentage of viable cells was calculated.

[2] = tested on: normal cell line WI-38; test: MTT cytotoxicity on normal cell line WI-38; conditions: listed as STA
[3] = tested on: lung cancer (HOP-92) cell line; test: MTT antiproliferative assay, HOP-92; format: cell-based, human; conditions: for % viability: listed as STA
Method: […]. […] See Appendix B.
After 24 h of culture incubation and supernatants discarded.

[4] = tested on: NCI 60 cancer cell lines; test: NCI anticancer screening over a panel of 60 cancer cells, single concentration 10 µM; format: cell-based, human; conditions: Homo sapiens, read-out: Growth inhibition (GI %)
Summary of the method: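 Primary single-dose screen at 10 µM over the NCI panel of 60 human tumour cell lines (leukemia, CNS, lung, colon, kidney, ovary, breast, prostate). The standard NCI Developmental Therapeutics Program protocol was used.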

What does the source list for `CN[C@@H]1C[C@H]2O[C@@](C)([C@@H]1OC)n1c3ccccc3c3c4c(c5c6ccccc6n2c5c31)C(=O)NC4` [Staurosporine, reference compound]?
viability at 0.4 µM ([1]; Homo sapiens, T47D): 69%; viability at 6.3 µM ([1]; Homo sapiens, T47D, 6.3uM (log 0.796)): 45.9%; viability at 25 µM ([1]; Homo sapiens, T47D, 25uM (log 1.398)): 35%; viability at 100 µM ([1]; Homo sapiens, T47D, 100uM (log 2), MTT absorbance 450 nm): 29.6%; % viability ([1]; T47D, 1.6ug (log 0.193), listed as STA): 61.548% and 61.55%; % viability ([1]; human, 0.4 µM): 69.04%; % viability ([2]; WI38, 1.6uM (log conc. 0.19), 1.6 µM): 68.1%; % viability ([2]; WI38, 100uM (log conc. 2), 100 µM): 37.43%; % viability ([3]; HOP-92, MTT, 0.4uM): 69.37%; % viability ([3]; HOP-92, MTT, 1.6uM): 61.2%; % viability ([3]; HOP-92, MTT, 6.3uM): 43.16%; % viability ([3]; HOP-92, MTT, 100uM): 17.16%; viability at 0.4 µM ([3]; Homo sapiens, HOP-92, HOP-92, MTT, 0.4uM): 69.4%; viability at 1.6 µM ([3]; Homo sapiens, HOP-92, HOP-92, MTT, 1.6uM): 61.2%; viability at 6.3 µM ([3]; Homo sapiens, HOP-92, HOP-92, MTT, 6.3uM): 43.2%; viability at 25 µM ([3]; Homo sapiens, HOP-92, HOP-92, MTT, 25uM): 24.7%; viability at 100 µM ([3]; Homo sapiens, HOP-92, HOP-92, MTT, 100uM): 17.2%; IC50 ([3]; Homo sapiens, HOP-92, MTT, read-out: Antiproliferative activity IC50 ± SEM, HOP-92): 3.17 ± 0.19 µM; IC50 ([3]; Homo sapiens, HOP-92, concentration used in RT-PCR, read-out: IC50): 3.17 µM

How did the inhibition at 10 µM ([4]; A498, Renal cancer A498, 10 μM) turn out when `CC(=O)c1cnn(-c2cc(=O)[nH]c3ccc(Cl)cc23)c1C` [Compound 2d, 4-(4Aacetyl-5-methyl-1H-pyrazol-1-yl)-6-chloroquinolin-2(1H)-one] was run?
Its inhibition at 10 µM is less than 5%.

And the inhibition at 10 µM ([4]; A549, Non-small cell lung cancer A549/ATCC, 10 μM)?
Its inhibition at 10 µM is 5.11%.

What about the inhibition at 10 µM ([4]; ACHN, Renal cancer ACHN, 10 μM) of the same compound?
Its inhibition at 10 µM is 7.6%.

And the inhibition at 10 µM ([4]; BT-549, Breast cancer BT-549, 10 μM)?
The inhibition at 10 µM was less than 5%.

What about the inhibition at 10 µM ([4]; CAKI-1, Renal cancer CAKI-1, 10 μM) of the same compound?
Its inhibition at 10 µM is 15.1%.

And the inhibition at 10 µM ([4]; CCRF-CEM, Leukemia CCRF-CEM, 10 μM)?
The inhibition at 10 µM was 8.99%.

And the inhibition at 10 µM ([4]; COLO 205, Colon cancer COLO 205, 10 μM)?
The inhibition at 10 µM was less than 5%.

What about the inhibition at 10 µM ([4]; DU-145, Prostate cancer DU-145, 10 μM) of the same compound?
The inhibition at 10 µM was less than 5%.

And the inhibition at 10 µM ([4]; EKVX, Non-small cell lung cancer EKVX, 10 μM)?
The inhibition at 10 µM was 13.9%.

What about the inhibition at 10 µM ([4]; HCC 2998, Colon cancer HCC-2998, 10 μM) of the same compound?
Its inhibition at 10 µM is less than 5%.

What about the inhibition at 10 µM ([4]; HCT-15, Colon cancer HCT-15, 10 μM) of the same compound?
Its inhibition at 10 µM is less than 5%.

And the inhibition at 10 µM ([4]; HCT-116, Colon cancer HCT-116, 10 μM)?
Its inhibition at 10 µM is less than 5%.

And the inhibition at 10 µM ([4]; HL-60, Leukemia HL-60(TB), 10 μM)?
The inhibition at 10 µM was 6.19%.

What about the inhibition at 10 µM ([4]; HOP-62, Non-small cell lung cancer HOP-62, 10 μM) of the same compound?
The inhibition at 10 µM was 9.35%.

What about the inhibition at 10 µM ([4]; HOP-92, Non-small cell lung cancer HOP-92, 10 μM) of the same compound?
Its inhibition at 10 µM is 13.4%.

What about the inhibition at 10 µM ([4]; HT-29, Colon cancer HT29, 10 μM) of the same compound?
Its inhibition at 10 µM is less than 5%.

And the inhibition at 10 µM ([4]; Hs-578T, Breast cancer HS 578T, 10 μM)?
The inhibition at 10 µM was less than 5%.

What about the inhibition at 10 µM ([4]; IGROV-1, Ovarian cancer IGROV1, 10 μM) of the same compound?
The inhibition at 10 µM was 7.41%.

What about the inhibition at 10 µM ([4]; K562, Leukemia K-562, 10 μM) of the same compound?
Its inhibition at 10 µM is 5.5%.

What about the inhibition at 10 µM ([4]; KM12, Colon cancer KM12, 10 μM) of the same compound?
The inhibition at 10 µM was less than 5%.

What about the inhibition at 10 µM ([4]; LOX IMVI, Melanoma LOX IMVI, 10 μM) of the same compound?
Its inhibition at 10 µM is 11.2%.

What about the inhibition at 10 µM ([4]; Leukemia SR, 10 μM) of the same compound?
The inhibition at 10 µM was less than 5%.

What about the inhibition at 10 µM ([4]; MCF7, Breast cancer MCF7, 10 μM) of the same compound?
The inhibition at 10 µM was 6.43%.

And the inhibition at 10 µM ([4]; MDA-MB-435, Melanoma MDA-MB-435, 10 μM)?
The inhibition at 10 µM was less than 5%.

What about the inhibition at 10 µM ([4]; MDA-MB-468, Breast cancer MDA-MB-468, 10 μM) of the same compound?
Its inhibition at 10 µM is less than 5%.

And the inhibition at 10 µM ([4]; MOLT-4, Leukemia MOLT-4, 10 μM)?
The inhibition at 10 µM was 8.77%.

And the inhibition at 10 µM ([4]; Malme-3M, Melanoma MALME-3M, 10 μM)?
Its inhibition at 10 µM is 13.3%.

And the inhibition at 10 µM ([4]; Melanoma M14, 10 μM)?
The inhibition at 10 µM was less than 5%.

And the inhibition at 10 µM ([4]; NCI-H23, Non-small cell lung cancer NCI-H23, 10 μM)?
Its inhibition at 10 µM is 5.37%.

What about the inhibition at 10 µM ([4]; NCI-H226, Non-small cell lung cancer NCI-H226, 10 μM) of the same compound?
The inhibition at 10 µM was 16.6%.

And the inhibition at 10 µM ([4]; NCI-H322M, Non-small cell lung cancer NCI-H322M, 10 μM)?
Its inhibition at 10 µM is 12.2%.

And the inhibition at 10 µM ([4]; NCI-H460, Non-small cell lung cancer NCI-H460, 10 μM)?
The inhibition at 10 µM was less than 5%.

What about the inhibition at 10 µM ([4]; NCI-H522, Non-small cell lung cancer NCI-H522, 10 μM) of the same compound?
Its inhibition at 10 µM is 5.29%.

What about the inhibition at 10 µM ([4]; NCI/ADR-RES, Ovarian cancer NCI/ADR-RES, 10 μM) of the same compound?
The inhibition at 10 µM was 5.32%.

And the inhibition at 10 µM ([4]; OVCAR-3, Ovarian cancer OVCAR-3, 10 μM)?
The inhibition at 10 µM was less than 5%.

What about the inhibition at 10 µM ([4]; OVCAR-4, Ovarian cancer OVCAR-4, 10 μM) of the same compound?
The inhibition at 10 µM was less than 5%.

And the inhibition at 10 µM ([4]; OVCAR-5, Ovarian cancer OVCAR-5, 10 μM)?
The inhibition at 10 µM was less than 5%.

And the inhibition at 10 µM ([4]; OVCAR-8, Ovarian cancer OVCAR-8, 10 μM)?
The inhibition at 10 µM was less than 5%.

And the inhibition at 10 µM ([4]; Prostate cancer PC-3, 10 μM)?
The inhibition at 10 µM was 11%.

And the inhibition at 10 µM ([4]; RPMI-8226, Leukemia RPMI-8226, 10 μM)?
Its inhibition at 10 µM is 9.16%.

And the inhibition at 10 µM ([4]; RXF 393, Renal cancer RXF 393, 10 μM)?
Its inhibition at 10 µM is less than 5%.

And the inhibition at 10 µM ([4]; SF-268, CNS Cancer SF-268, 10 μM)?
Its inhibition at 10 µM is less than 5%.

And the inhibition at 10 µM ([4]; SF-295, CNS Cancer SF-295, 10 μM)?
The inhibition at 10 µM was 5.21%.

What about the inhibition at 10 µM ([4]; SF-539, CNS Cancer SF-539, 10 μM) of the same compound?
The inhibition at 10 µM was 14.4%.

What about the inhibition at 10 µM ([4]; SK-MEL-2, Melanoma SK-MEL-2, 10 μM) of the same compound?
Its inhibition at 10 µM is less than 5%.

And the inhibition at 10 µM ([4]; SK-MEL-5, Melanoma SK-MEL-5, 10 μM)?
Its inhibition at 10 µM is 5.89%.

And the inhibition at 10 µM ([4]; SK-MEL-28, Melanoma SK-MEL-28, 10 μM)?
Its inhibition at 10 µM is less than 5%.

And the inhibition at 10 µM ([4]; SK-OV-3, Ovarian cancer SK-OV-3, 10 μM)?
Its inhibition at 10 µM is 6.14%.

What about the inhibition at 10 µM ([4]; SN12C, Renal cancer SN12C, 10 μM) of the same compound?
The inhibition at 10 µM was 15.2%.

And the inhibition at 10 µM ([4]; SNB-19, CNS Cancer SNB-19, 10 μM)?
The inhibition at 10 µM was 7.35%.

And the inhibition at 10 µM ([4]; SNB-75, CNS Cancer SNB-75, 10 μM)?
Its inhibition at 10 µM is less than 5%.

What about the inhibition at 10 µM ([4]; SW-620, Colon cancer SW-620, 10 μM) of the same compound?
The inhibition at 10 µM was less than 5%.

What about the inhibition at 10 µM ([4]; T47D, Breast cancer T-47D, 10 μM) of the same compound?
The inhibition at 10 µM was less than 5%.

What about the inhibition at 10 µM ([4]; TK-10, Renal cancer TK-10, 10 μM) of the same compound?
The inhibition at 10 µM was less than 5%.

What about the inhibition at 10 µM ([4]; U-251, CNS Cancer U251, 10 μM) of the same compound?
The inhibition at 10 µM was less than 5%.

What about the inhibition at 10 µM ([4]; UACC-62, Melanoma UACC-62, 10 μM) of the same compound?
Its inhibition at 10 µM is 15.7%.

What about the inhibition at 10 µM ([4]; UACC-257, Melanoma UACC-257, 10 μM) of the same compound?
Its inhibition at 10 µM is less than 5%.

And the inhibition at 10 µM ([4]; UO-31, Renal cancer UO-31, 10 μM)?
The inhibition at 10 µM was 35%.

Reference: publication PMC12638379, “An innovative approach to development of new pyrazolylquinolin-2-one hybrids as dual EGFR and BRAF^V600E inhibitors” (Molecular Diversity, 2025)
